The values that follow are results of earlier work, collected in article PMC11659887 (ACS Bio & Med Chem Au, 2024).

For this data set, the system named is SARS-CoV-2 M^pro E166Q.

Turning to `CC(C)(C)[C@H](NC(=O)C(F)(F)F)C(=O)N1C[C@H]2[C@@H]([C@H]1C(=O)N[C@H](C#N)C[C@@H]1CCNC1=O)C2(C)C` [nirmatrelvir, Nirmatrelvir], the resistance to nirmatrelvir result is on record as “no significant resistance”.
